How the values were obtained:
[1] = molecular target: T1, FXR (Homo sapiens, UniProt Q96RI1); test: Intracellular FXR-TR-FRET experiment (pBIND-FXR / pG5Luc dual luciferase); format: cell-based; settings: cellular level, 18 hours with compound
T1 construct: expressed in transfected cells
T1 sequence (Q96RI1 1-486): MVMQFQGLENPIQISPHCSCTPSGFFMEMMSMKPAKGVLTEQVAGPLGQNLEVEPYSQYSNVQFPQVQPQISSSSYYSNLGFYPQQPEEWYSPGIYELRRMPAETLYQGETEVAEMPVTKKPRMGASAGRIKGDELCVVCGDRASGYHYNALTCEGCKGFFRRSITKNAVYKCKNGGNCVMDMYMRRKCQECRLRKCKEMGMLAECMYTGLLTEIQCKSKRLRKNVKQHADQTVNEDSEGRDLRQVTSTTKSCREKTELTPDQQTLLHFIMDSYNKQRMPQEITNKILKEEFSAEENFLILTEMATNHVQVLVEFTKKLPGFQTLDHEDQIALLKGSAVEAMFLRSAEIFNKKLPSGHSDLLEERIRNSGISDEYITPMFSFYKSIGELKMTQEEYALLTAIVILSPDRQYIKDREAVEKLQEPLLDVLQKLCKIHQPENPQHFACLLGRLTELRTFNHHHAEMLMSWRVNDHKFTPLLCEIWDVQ
Protocol: • 1. Cell culture: a, trypsinize dishes and seed cells are taken with appropriate density in 10 ml of complete […] at 37° C. b. Cells are incubated for 24 hours in 5% CO2 and humidified. • 2. Cell inoculation and transfection: FuGENE HD transfection reagent is used as a transfection reagent. • a. The transfection mixture is prepared according to the following procedure:
• b. The tube is tapped vigorously to mix the contents. The mixture is incubated at room temperature for 15 minutes. • c. Discs are trypsinized and cell density is determined. • d. The cytolymph is diluted to the desired volume at a density of 500,000 cells/ml (100 ul/well for 96-well plate). • e. The required volume of previously prepared transfection mixture is added to both cytolymph, and then 100 ul/well of cytolymph is dispensed onto the assay plate. • f. The assay plate is incubated under humidified conditions at 37° C., 5% CO2 for 24 hours. • 3. Compound preparation: • a. Compound stocks are prepared with a FXR working concentration of 10 mM and then diluted 3-fold in 100% DMSO. • b. 10 ul compound is added to 90 ul complete medium. • c. 5 ul compound solution is added to each well. • d. The plate is incubated at 37° C., 5% CO2 and humidified for 18 hours. • 4. Dual luciferase assay: the firefly and Renilla luciferase signals are analyzed by Dual Luciferase Reporter Assay System from Promega. Envision is used as a photometer. • 5. Result calculation: data values are normalized by dividing the firefly signal by the Renilla signal. “F/R” means “firefly/Renilla”. This normalization eliminates differences in different cell numbers and transfection efficiencies in each well. The % Activation value is calculated. The % Activation value is calculated by the following formula.
X is the “F/R” value for each concentration point. The minimum value is the average “F/R” value for the no compound control. The maximum value is the average “F/R” value of the reference compound control. • 6.

[2] = in vitro; settings: human; for efflux ratio: Caco-2; for Papp B→A: Caco-2, Papp B-A; for recovery: Caco-2, Recovery rate A-B
Protocol: The bi-directional transport of target compounds from apical side (AP) to basolateral side (BL) and from BL side to AP side is studied by using human colon adenocarcinoma cell line Caco-2 monolayer model. The transport parameters, apparent permeability coefficient (Papp) and efflux ratio are calculated by quantitative analysis with high performance liquid chromatography (HPLC).

[3] = Caco-2, Papp, A-to-B values (highly permeable substrates)

| Compound | EC50 [1] | efflux ratio [2] | Papp A→B ([2]; Caco-2, Papp A-B) | Papp A→B ([2]; Caco-2, Papp A-B, Average) | Papp A→B ([2]; Caco-2, Papp A-B, Sample-01) | Papp A→B ([2]; Caco-2, Papp A-B, Sample-02) | Papp B→A [2] | Papp A→B [2, 3] | recovery ([2]; Average) | recovery ([2]; Sample-01) | recovery ([2]; Sample-02) |
| --- | --- | --- | --- | --- | --- | --- | --- | --- | --- | --- | --- |
| O=C(O)c1cccc(C2CC(O)(c3cnc(OCc4c(-c5c(Cl)cccc5Cl)noc4C4CC4)cn3)C2)c1 (centres unmarked) [TM-01, 3-(3-(5-(5-cyclopropyl-3-(2,6-dichlorophenyl)isoxazole-4-ylmethoxy)-2-pyrazine)-1-hydroxycyclobutane) benzoic acid] | 1280 nM | 3.95 | 8.25 ×10⁻⁶ cm/s | 8.17 ×10⁻⁶ cm/s | 6.42 ×10⁻⁶ cm/s | 9.91 ×10⁻⁶ cm/s | 32.6 ×10⁻⁶ cm/s | > 2.5 ×10⁻⁶ cm/s | 71.2% | 63.9% | 78.5% |
| O=C(O)c1cccc(N2CC(O)(c3cnc(OCc4c(-c5c(Cl)cccc5Cl)noc4C4CC4)cn3)C2)c1 [TM-02, 3-(3-(5-((5-cyclopropyl-3-(2,6-dichlorophenyl)isoxazol-4-yl)methoxy)pyrazine-2-yl)-3-hydroxyazetidin-1-yl) benzoic acid] | 3140 nM | 3.75 | 8.87 ×10⁻⁶ cm/s | 9.02 ×10⁻⁶ cm/s | 8.57 ×10⁻⁶ cm/s | 9.47 ×10⁻⁶ cm/s | 33.3 ×10⁻⁶ cm/s | > 2.5 ×10⁻⁶ cm/s | 70.8% | 64.9% | 76.8% |
| CC(C)c1onc(-c2c(Cl)cccc2Cl)c1COc1cnc(C2(O)CC(c3cccc(C(=O)O)c3)C2)cn1 (centres unmarked) [TM-06, 3-(3-(5-(5-isopropyl-3-(2,6-dichlorophenyl)isoxazole-4-ylmethoxy)-2-pyrazine)-1-hydroxycyclobutane) benzoic acid] | 1790 nM | 5.12 | 7.54 ×10⁻⁶ cm/s | 7.17 ×10⁻⁶ cm/s | 7.86 ×10⁻⁶ cm/s | 6.48 ×10⁻⁶ cm/s | 38.6 ×10⁻⁶ cm/s | > 2.5 ×10⁻⁶ cm/s | 74.2% | 81% | 67.3% |
| Cc1cc(C(=O)O)cc(C2CC(O)(c3cnc(OCc4c(-c5c(Cl)cccc5Cl)noc4C(C)C)cn3)C2)c1 (centres unmarked) [TM-09, 3-(3-(5-((3-(2,6-dichlorophenyl)-5-isopropylisoxazol-4-yl)methoxy)pyrazine-2-yl)-3-hydroxycyclobutyl)-5-methyl benzoic acid] | 260 nM | 4.22 | 6.91 ×10⁻⁶ cm/s | 8.75 ×10⁻⁶ cm/s | 8.46 ×10⁻⁶ cm/s | 9.05 ×10⁻⁶ cm/s | 29.2 ×10⁻⁶ cm/s | > 2.5 ×10⁻⁶ cm/s | 81.4% | 80.9% | 82% |

— patent publication US12486259B2, “FXR agonist having pyrazine structure, and preparation method and use” (JIANGSU TASLY DIYI PHARMACEUTICAL CO., LTD., priority 2020, dated 2025)
